Source: patent US6372772B1, “Inhibitors of redox signaling and methods of using same” (Prolx Pharmaceuticals Corporation, priority 1997, dated 2002)
In brackets after ≈: the same amount, converted by molar mass. Read-outs that look alike come from different tables or passages of the source.

Key:
[1] = test system: human MCF-7 breast cancer; experiment: MCF-7 breast cancer xenografts in scid mice; assay type: in vivo; conditions: for tumor inhibition: MCF-7 tumor system
HL-60 leukemia = HL-60 leukemia xenografts in scid mice; assay type: in vivo; conditions: for antitumor activity against HL-60 leukemia: a number of the animals without tumor at day 45
[2] = target: T1, thioredoxin reductase/thioredoxin (Homo sapiens, UniProt Q16881); experiment: thioredoxin reductase/thioredoxin-dependent insulin reduction assay; assay type: biochemical
T1 sequence (Q16881 1-499 isoform Q16881-5): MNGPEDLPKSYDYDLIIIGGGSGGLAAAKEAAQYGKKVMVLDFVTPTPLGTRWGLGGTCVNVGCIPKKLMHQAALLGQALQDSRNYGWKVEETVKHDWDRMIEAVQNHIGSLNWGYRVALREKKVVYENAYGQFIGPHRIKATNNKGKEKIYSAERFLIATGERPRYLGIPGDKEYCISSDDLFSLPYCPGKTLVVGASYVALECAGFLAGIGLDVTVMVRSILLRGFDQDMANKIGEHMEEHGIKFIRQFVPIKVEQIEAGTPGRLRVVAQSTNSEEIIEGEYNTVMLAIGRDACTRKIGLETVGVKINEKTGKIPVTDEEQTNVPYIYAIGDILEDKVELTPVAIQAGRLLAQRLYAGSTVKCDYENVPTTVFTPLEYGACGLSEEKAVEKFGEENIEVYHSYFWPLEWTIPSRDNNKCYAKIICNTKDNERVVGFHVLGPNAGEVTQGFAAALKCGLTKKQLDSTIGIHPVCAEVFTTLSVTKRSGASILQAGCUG

tumors in the colon = experiment: min (multiple intestinal neoplasia) mouse chemoprevention; assay type: in vivo; conditions: in the diet at 250 ppm
Description: The min mouse has a germline mutation in the APC gene seen in human familial adenomatous polyposis (FAP). This model was chosen because of its genetic basis and as an alternative to chemically-induced models of colon cancer. The majority of the tumors that develops in the adult min mice are in the small intestine, although tumors are first diagnosed in the colon. FAP represents a high risk group of subjects with a readily identifiable early end-point marker that is suitable for trials of novel chemopreventive agents.

[3] = test system: thioredoxin-dependent cell proliferation; experiment: thioredoxin- versus serum-dependent cell proliferation in culture; assay type: cell-based
thioredoxin reductase = target: T2, thioredoxin reductase (Homo sapiens, UniProt Q16881); experiment: biochemical
T2 sequence (Q16881 1-499 isoform Q16881-5): T1 sequence (Q16881 1-499 isoform Q16881-5)

glutathione reductase = target: T3, glutathione reductase (Homo sapiens, UniProt P00390); experiment: glutathione reductase assay (DTNB reduction); assay type: biochemical
T3 sequence (P00390 1-479 isoform P00390-2): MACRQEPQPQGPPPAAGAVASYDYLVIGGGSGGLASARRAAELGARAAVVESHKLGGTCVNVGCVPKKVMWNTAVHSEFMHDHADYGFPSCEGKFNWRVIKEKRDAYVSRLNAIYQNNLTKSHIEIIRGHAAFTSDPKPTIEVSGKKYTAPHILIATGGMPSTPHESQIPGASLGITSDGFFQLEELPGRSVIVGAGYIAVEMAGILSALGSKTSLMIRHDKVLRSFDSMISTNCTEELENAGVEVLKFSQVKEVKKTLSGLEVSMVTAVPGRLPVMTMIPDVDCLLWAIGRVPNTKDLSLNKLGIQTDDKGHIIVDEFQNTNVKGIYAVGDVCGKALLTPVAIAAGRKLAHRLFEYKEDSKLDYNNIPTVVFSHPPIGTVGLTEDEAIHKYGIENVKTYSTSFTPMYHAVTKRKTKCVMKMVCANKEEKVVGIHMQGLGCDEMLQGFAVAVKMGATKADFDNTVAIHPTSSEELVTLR

leukemia cell line = conditions: cited from earlier work
[4] = test system: NCI's panel of 60 human cancer cell lines; conditions: cited from earlier work
[5] = test system: MCF-7 breast cancer cells; conditions: read-out: EC50 for thioredoxin growth stimulation; cited from earlier work
[6] = Table III, read-out: in vitro IC50 TR/Trx (μg/ml) (converted)
[7] = Table II, read-out: IC50GR (μg/ml) (converted)
[8] = Table I, 30 min preincubation, read-out: IC50 (μg/ml) in TR/Trx Assay (converted)
[9] = Table II, read-out: IC50TRTrx (μg/ml) (converted)
[10] = ratio of IC50 TR alone and IC50 TR/Trx assay
[11] = mean 50% growth inhibition concentration, leukemias
[12] = mean 50% growth inhibition concentration, entire cell line panel

Compound | IC50 [2, 6] [nM] | IC50 (glutathione reductase; [7]) [nM] | IC50 [2, 8] [nM] | IC50 [2, 9] [nM] | TR/TRTrx [2, 10] | GI50 (μg/ml) Leukemias (leukemia cell line; [11]) [µg/mL] | GI50 (μg/ml) All Tumors [4, 12] [µg/mL] | also measured
c1ccc(CSSc2ncc[nH]2)cc1 [DLK-36, benzyl-2-imidazolyl disulfide] | 180000 | – | – | – | – | – | – | T/C % tumor volume at day 28 ([1]; 25 mg/kg/day for 14 days): 100.7%; T/C % tumor volume at day 28 ([1]; 40 mg/kg/day for 14 days): 23.7%; tumor inhibition [1]: 65%; antitumor activity against HL-60 leukemia (HL-60 leukemia): showed antitumor activity
CCC(C)SSc1ncc[nH]1 (centres unmarked) [IV-2, 1-methylpropyl 2-imidazolyl disulfide] | – | – | – | – | – | – | – | size of remaining tumors (tumors in the colon; p<0.001 compared to control): significant reduction in the size of remaining tumors; reduction of number of tumors in the colon (tumors in the colon; p=0.0160): 70%; T/C % tumor volume at day 28 ([1]; 5 mg/kg/day for 14 days): 56.7%; T/C % tumor volume at day 28 ([1]; 10 mg/kg/day for 14 days): 45.9%; T/C % tumor volume at day 28 ([1]; 15 mg/kg/day for 14 days): 2.3%; tumor inhibition [1]: 98%; antitumor activity against MCF-7 xenografts ([1]; scid mice): dose-dependent antitumor activity; antitumor activity against HL-60 xenografts (HL-60 leukemia): dose-dependent antitumor activity; antitumor activity against HL-60 leukemia (HL-60 leukemia): showed antitumor activity; inhibition of thioredoxin- versus serum-dependent cell proliferation [3]: greater inhibition of thioredoxin than serum-dependent cell proliferation
CCCC(=O)OC1C2C(CC1(C)C)C(=O)C13OC1C(=O)C1(CO1)C23C (centres unmarked) [NSC 163027] | ≤ 1440 | 115000 | 1090 | 1090 | 13.2 | 0.6 (≈ 1.72 µM) | 3.1 (≈ 8.9 µM) | IC50 (thioredoxin reductase): 14400 nM
Cc1cc2c(c(O)c1-c1c(C)cc(O)c3c1C(=O)C=CC3=O)C(=O)C=CC2=O [NSC 208731] | ≤ 267 | 13400 | 267 | 267 | 1.0 | 0.03 (≈ 0.0801 µM) | 0.6 (≈ 1.6 µM) | –
C=C(CN(C)C)C(=O)c1ccc(C)cc1C [NSC 382000] | ≤ 460 | 13800 | 460 | 460 | 1.0 | 0.1 (≈ 0.46 µM) | 1.0 (≈ 4.6 µM) | –
CC1COC2C3=C(C(=O)C=CC3=O)C3OC(=O)C4CCC5CC1CCC52C43 (centres unmarked) [NSC 401005] | ≤ 271 | 40700 | 163 | 163 | 1.7 | 1.8 (≈ 4.89 µM) | 7.6 (≈ 20.6 µM) | –
CC(C)(CN1C(=O)C(Cl)=C(Cl)C1=O)CN1C(=O)C(Cl)=C(Cl)C1=O [NSC 617145] | – | – | – | – | 0.8 | 0.2 (≈ 0.5 µM) | 4.4 (≈ 11 µM) | IC50 (glutathione reductase): 125000 nM; IC50 ([2]; IC50 (μg/ml) in TR/Trx Assay): 300 nM; IC50 ([2]; IC50TRTrx (μg/ml)): 300 nM; IC50 ([2]; in vitro IC50 TR/Trx (μg/ml)): ≤ 1250 nM
CCc1cccc(CC)c1NC(=O)/C(Cl)=C(/Cl)C(=O)O [NSC 618605] | ≤ 1580 | 108000 | 380 | 380 | 0.8 | 2.5 (≈ 7.91 µM) | 7.2 (≈ 22.8 µM) | –
COC(=O)C(CBr)CBr [NSC 620109] | – | – | – | – | – | – | – | IC50 (glutathione reductase; read-out: IC50GR (μg/ml) (converted)): 127000 nM; TR/TRTrx [2]: 0.3; IC50 ([2]; read-out: IC50 (μg/ml) in TR/Trx Assay (converted)): 1230 nM; IC50 ([2]; read-out: IC50TRTrx (μg/ml) (converted)): 1230 nM; IC50 ([2]; read-out: in vitro IC50 TR/Trx (μg/ml) (converted)): ≤ 1920 nM; GI50 (μg/ml) Leukemias (leukemia cell line): 0.2 µg/mL (≈ 0.769 µM); GI50 (μg/ml) All Tumors [4]: 1.1 µg/mL (≈ 4.23 µM)
Cc1ccc(NC(=O)/C(Cl)=C(/Cl)C(=O)O)cc1 [NSC 622378] | ≤ 1820 | 73000 | 438 | 438 | 0.8 | 1.6 (≈ 5.84 µM) | 5.0 (≈ 18.2 µM) | –
Cc1cccc2c1c1ccc3c(c1n2C)C(=O)C=CC3=O [NSC 645330] | ≤ 18200 | 182000 | 6900 | 6870 | 26.5 | 0.3 (≈ 1.09 µM) | 1.5 (≈ 5.45 µM) | IC50 (thioredoxin reductase): 182000 nM
O=[N+]([O-])C(=C(Sc1ccccc1)Sc1ccccc1)C(Cl)=C(Cl)Cl [NSC 665103] | ≤ 239 | 76400 | 239 | 239 | 50.0 | 0.04 (≈ 0.0955 µM) | 0.4 (≈ 0.955 µM) | IC50 (thioredoxin reductase): 11900 nM
thioredoxin | – | – | – | – | – | – | – | EC50 [5]: 350 nM
